Patent publication US20110269799A1 (priority 2008, published 2011)
Like-named read-outs stand apart in the source and are kept apart here.

How the values were obtained:
[1] = system: patients who have nonvalvular atrial fibrillation; details: meta-analysis; cited from earlier work
AF patients [2] = details: SPORTIF III, cited from earlier work
[3] = system: patients with atrial fibrillation at risk of stroke; details: warfarin INR 2.0-3.0
Description: Median follow-up was 2.0 years and the primary outcome was stroke or systemic embolism.
Patients were recruited from 951 clinical centers in 44 countries. In brief, patients were eligible if they had atrial fibrillation documented on electrocardiogram at screening or within 6 months; and at least one of the following: prior stroke or transient ischemic attack; left ventricular ejection fraction less than 40%; New York Heart Association heart failure symptoms of Class 2 or greater within 6 months; age at least 75 years; or age at least 65 years with diabetes mellitus, hypertension or coronary artery disease.
The time in therapeutic range was calculated by the method of Rosendaal (Rosendaal F R, et al., A method to determine the optimal intensity of oral anticoagulant therapy, Thromb Haemost, 1993, 69:236-239), excluding INRs from the first week and after discontinuations. […] Concomitant use of aspirin (less than 100 mg/day) or other antiplatelet agents was allowed.
Liver function testing was performed monthly during the first year of follow-up.
The primary study outcome was stroke or systemic embolism. The primary safety outcome was major hemorrhage. Secondary outcomes were stroke, systemic embolism and death. Other outcomes were myocardial infarction, pulmonary embolism, transient ischemic attacks, and hospitalizations. The primary net benefit-risk outcome was the composite of stroke, systemic embolism, pulmonary embolism, myocardial infarction, death or major hemorrhage. Stroke was defined as sudden onset of focal neurological deficit consistent with the territory of a major cerebral artery and categorized as ischemic, hemorrhagic or unspecified. Hemorrhagic transformation of ischemic stroke was not considered as hemorrhagic stroke. Intracranial hemorrhage included hemorrhagic stroke and sub-dural or sub-arachnoid hemorrhage. Systemic embolism was an acute vascular occlusion of an extremity or organ documented by imaging, surgery or autopsy. Major bleeding was defined as a reduction in hemoglobin level of at least […] or transfusion of at least 2 units of blood or symptomatic bleeding in a critical area or organ. Life-threatening bleeding was a subset of major bleeding that included fatal bleeding, symptomatic intracranial bleeding, bleeding with hemoglobin decrease of more than […] or requiring transfusion of more than 4 units of blood or requiring inotropic agents or necessitating surgery. All other bleeding was considered minor.
All primary and secondary outcome events were blindly and doubly adjudicated. An international team of adjudicators reviewed documents in local languages after blinding; or documents were translated by a independent group and blinded centrally. All transient ischemic attacks were reviewed to ensure that strokes had not been missed. To detect possible unreported events, symptom questionnaires were regularly administered to patients, and adverse events and hospitalization reports were scrutinized for unreported primary or secondary outcomes.
If maximum of the two p-values was greater than 0.025, the minimum of the two p-values must be less than 0.0125, one-sided, to claim statistical significance. All analyses were based on intention-to-treat.

AF patients [4] = details: ACTIVE W; cited from earlier work
AF patients [5] = details: SPORTIF V, cited from earlier work

Which “Reduction of the risk of stroke compared to control” value [1] does the source give for `CC(=O)CC(c1ccccc1)c1c(O)c2ccccc2oc1=O` (racemic) [Warfarin, 3-(α-acetonylbenzyl)-4-hydroxycoumarin] here?
The value was 64%.

What about the “Myocardial Infarction” value (AF patients [2]) of the same molecule?
The value was 0.6% (warfarin).

What about the “Stroke and systemic embolism (per 100 patient years)” value (AF patients [2]; ximelagatran 36 mg b.i.d.) of the same molecule?
Its value is 2.3% (warfarin).

And the “ALT or AST > 3xULN” value [3]?
Its value is “(2.1) %”.

And the “ALT or AST > 3xULN with concurrent bilirubin > 2xULN” value [3]?
Its value is “(0.4) %”.

And the “Adverse Event: Arthralgia” value [3]?
Its value is “(5.5) %”.

What about the “Adverse Event: Atrial fibrillation” value [3] of the same molecule?
The value was “(5.4) %”.

And the “Adverse Event: Back pain” value [3]?
Its value is “(5.5) %”.

And the “Adverse Event: Chest pain” value [3]?
Its value is “(5.7) %”.

What about the “Adverse Event: Cough” value [3] of the same molecule?
Its value is “(5.8) %”.

What about the “Adverse Event: Diarrhea” value [3] of the same molecule?
Its value is “(5.5) %”.

And the “Adverse Event: Dizziness” value [3]?
Its value is “(9.3) %”.

What about the “Adverse Event: Dyspepsia” value [3] of the same molecule?
The value was “(1.4) %”.

What about the “Adverse Event: Dyspnoea” value [3] of the same molecule?
Its value is “(9.2) %”.

And the “Adverse Event: Fatigue” value [3]?
Its value is “(5.9) %”.

What about the “Adverse Event: Nasopharyngitis” value [3] of the same molecule?
The value was “(5.5) %”.

And the “Adverse Event: Peripheral edema” value [3]?
The value was “(7.6) %”.

And the “Adverse Event: Upper respiratory tract infection” value [3]?
Its value is “(5.0) %”.

And the “Adverse Event: Urinary tract infection” value [3]?
The value was “(5.3) %”.

What about the “Major Bleeding, Life threatening, Rate” value [3] of the same molecule?
The value was 1.80 /100 Person Years.

What about the “Major Bleeding, Other Major, Rate” value [3] of the same molecule?
The value was 1.80 /100 Person Years.

And the “Pulmonary embolism, Rate” value [3]?
The value was 0.09 /100 Person Years.

And the “Rate of discontinuation at 2.5 years” value [3]?
The value was 19%.

And the “Rate of hemorrhagic stroke” value [3]?
The value was 0.38 % per year.

And the “Rate of myocardial infarction” value [3]?
Its value is 0.54 % per year.

What about the “Rate of primary outcome, stroke or systemic embolism” value [3] of the same molecule?
The value was 1.70 % per year.

What about the “Reason for discontinuation: Gastrointestinal bleeding” value [3] of the same molecule?
Its value is “(0.9) %”.

And the “Reason for discontinuation: Gastrointestinal disorders (including pain, vomiting and diarrhea)” value [3]?
Its value is “(0.8) %”.

And the “Reason for discontinuation: Outcome event” value [3]?
The value was “(2.2) %”.

What about the “Reason for discontinuation: Patient decision” value [3] of the same molecule?
Its value is “(6.2) %”.

And the “Reason for discontinuation: SAE” value [3]?
Its value is “(1.6) %”.

What about the “Stroke, systemic embolism, pulmonary embolism, myocardial infarction death or major bleed (net benefit), Rate” value [3] of the same molecule?
The value was 7.99 /100 Person Years.

What about the “Study Drug Discontinuation at one year” value [3] of the same molecule?
Its value is “(10) %”.

What about the “Study Drug Discontinuation at two years” value [3] of the same molecule?
Its value is “(19) %”.

And the “hepatobiliary disorders (AE)” value [3]?
Its value is “(2.2) %”.

What about the “hepatobiliary disorders (SAE)” value [3] of the same molecule?
The value was “(0.4) %”.

What about the “Study Drug Discontinuation at one year” value ([3]; listed as warfarin) of the same molecule?
The value was 10%.

What about the “Myocardial Infarction” value (AF patients [4]) of the same molecule?
The value was 0.6% (warfarin).

What about the “Stroke and systemic embolism (per 100 patient years)” value (AF patients [4]) of the same molecule?
Its value is 1.5% (warfarin).

What about the “Myocardial Infarction” value (AF patients [5]) of the same molecule?
Its value is 1.4% (warfarin).

And the “Stroke and systemic embolism (per 100 patient years)” value (AF patients [5]; ximelagatran 36 mg b.i.d.)?
The value was 1.2% (warfarin).
